Where “and” joins values, the source holds several entries; their conditions need not be identical. Identical values can stand only once.
What was measured:
[1] = target: ACK (Homo sapiens (Human), UniProt Q07912); assay: KINATIV assay; assay type: cell-based; details: 1 μM, 90 minutes, BCWM.1 cells
Method: (§1) The cells were harvested and lysed. The lysates were directly labeled with an ATP-biotin probe. Bound kinases were identified and quantitated by ACTIVX as described in Patricelli et al., Biochemistry, 2007, 46(2): 350-358. The compounds were tested in duplicates against duplicate or quadruplicate control samples.

[2] = test system: PKD1, PKD2; assay: KINATIV assay; assay type: cell-based; details: 1 μM, 90 minutes, BCWM.1 cells
Method: as §1

[3] = target: MAP2K1 (Homo sapiens (Human), UniProt Q02750); assay: KINATIV assay; assay type: cell-based; details: 1 μM, 90 minutes, BCWM.1 cells
Sequence of MAP2K1 (Q02750 whole entry): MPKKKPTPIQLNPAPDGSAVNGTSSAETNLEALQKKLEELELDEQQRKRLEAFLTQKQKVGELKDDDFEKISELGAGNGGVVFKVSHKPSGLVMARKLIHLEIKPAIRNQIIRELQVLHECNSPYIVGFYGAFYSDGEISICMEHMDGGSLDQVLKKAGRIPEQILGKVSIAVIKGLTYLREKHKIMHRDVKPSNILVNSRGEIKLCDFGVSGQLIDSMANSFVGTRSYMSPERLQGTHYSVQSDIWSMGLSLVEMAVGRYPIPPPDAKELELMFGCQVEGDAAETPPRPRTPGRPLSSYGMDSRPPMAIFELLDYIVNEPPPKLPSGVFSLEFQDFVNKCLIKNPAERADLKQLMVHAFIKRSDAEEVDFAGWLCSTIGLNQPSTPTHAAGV
Method: as §1

[4] = test system: CDK11, CDK8; assay: KINATIV assay; assay type: cell-based; details: 1 μM, 90 minutes, BCWM.1 cells
Method: as §1

[5] = target: CaMK4 (Homo sapiens (Human), UniProt Q16566); assay: KINATIV assay; assay type: cell-based; details: 1 μM, 90 minutes, BCWM.1 cells
Method: as §1

[6] = test system: JNK1, JNK2, JNK3; assay: KINATIV assay; assay type: cell-based; details: 1 μM, 90 minutes, BCWM.1 cells
Method: as §1

[7] = target: CLK3 (Homo sapiens (Human), UniProt P49761); assay: KINATIV assay; assay type: cell-based; details: 1 μM, 90 minutes, BCWM.1 cells
Method: as §1

[8] = target: CaMK2g (Homo sapiens (Human), UniProt Q13555); assay: KINATIV assay; assay type: cell-based; details: 1 μM, 90 minutes, BCWM.1 cells
Sequence of CaMK2g (Q13555 whole entry): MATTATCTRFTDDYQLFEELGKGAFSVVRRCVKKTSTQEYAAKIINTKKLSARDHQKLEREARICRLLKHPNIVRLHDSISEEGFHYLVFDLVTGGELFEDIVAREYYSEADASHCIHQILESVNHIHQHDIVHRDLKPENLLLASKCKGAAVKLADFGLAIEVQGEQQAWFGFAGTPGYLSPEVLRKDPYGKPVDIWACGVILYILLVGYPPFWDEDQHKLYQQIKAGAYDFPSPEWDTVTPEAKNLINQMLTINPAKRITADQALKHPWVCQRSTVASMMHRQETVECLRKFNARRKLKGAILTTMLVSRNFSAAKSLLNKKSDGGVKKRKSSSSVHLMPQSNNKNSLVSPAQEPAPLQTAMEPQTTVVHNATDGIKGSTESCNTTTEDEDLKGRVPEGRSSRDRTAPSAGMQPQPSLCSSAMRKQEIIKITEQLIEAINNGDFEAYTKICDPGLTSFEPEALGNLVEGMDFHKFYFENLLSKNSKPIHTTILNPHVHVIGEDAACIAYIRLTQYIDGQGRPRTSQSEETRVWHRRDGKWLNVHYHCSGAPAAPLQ
Method: as §1

[9] = target: eEF2K (Homo sapiens (Human), UniProt O00418); assay: KINATIV assay; assay type: cell-based; details: 1 μM, 90 minutes, BCWM.1 cells
Method: as §1

[10] = test system: MARK2, MARK3; assay: KINATIV assay; assay type: cell-based; details: 1 μM, 90 minutes, BCWM.1 cells
Method: as §1

[11] = target: BARK1 (Homo sapiens (Human), UniProt P25098); assay: KINATIV assay; assay type: cell-based; details: 1 μM, 90 minutes, BCWM.1 cells
Method: as §1

[12] = test system: TAO1, TAO3; assay: KINATIV assay; assay type: cell-based; details: 1 μM, 90 minutes, BCWM.1 cells
Method: as §1

[13] = target: PIP4K2C (Homo sapiens (Human), UniProt Q8TBX8); assay: KINATIV assay; assay type: cell-based; details: 1 μM, 90 minutes, BCWM.1 cells
Sequence of PIP4K2C (Q8TBX8 whole entry): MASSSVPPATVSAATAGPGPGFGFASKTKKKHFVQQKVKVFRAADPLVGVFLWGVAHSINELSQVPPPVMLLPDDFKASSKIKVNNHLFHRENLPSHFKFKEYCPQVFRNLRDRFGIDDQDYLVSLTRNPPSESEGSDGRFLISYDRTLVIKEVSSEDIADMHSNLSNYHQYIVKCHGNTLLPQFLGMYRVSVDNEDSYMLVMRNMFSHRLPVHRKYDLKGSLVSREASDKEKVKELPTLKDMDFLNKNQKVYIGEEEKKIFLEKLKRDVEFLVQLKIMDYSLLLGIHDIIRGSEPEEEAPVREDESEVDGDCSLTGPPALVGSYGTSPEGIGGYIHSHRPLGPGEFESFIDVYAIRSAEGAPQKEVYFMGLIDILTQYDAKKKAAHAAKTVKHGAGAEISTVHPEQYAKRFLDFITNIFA
Method: as §1

[14] = test system: KSR1, KSR2; assay: KINATIV assay; assay type: cell-based; details: 1 μM, 90 minutes, BCWM.1 cells
Method: as §1

[15] = test system: p38d, p38g; assay: KINATIV assay; assay type: cell-based; details: 1 μM, 90 minutes, BCWM.1 cells
Method: as §1

[16] = target: GSK3A (Homo sapiens (Human), UniProt P49840); assay: KINATIV assay; assay type: cell-based; details: 1 μM, 90 minutes, BCWM.1 cells
Sequence of GSK3A (P49840 whole entry): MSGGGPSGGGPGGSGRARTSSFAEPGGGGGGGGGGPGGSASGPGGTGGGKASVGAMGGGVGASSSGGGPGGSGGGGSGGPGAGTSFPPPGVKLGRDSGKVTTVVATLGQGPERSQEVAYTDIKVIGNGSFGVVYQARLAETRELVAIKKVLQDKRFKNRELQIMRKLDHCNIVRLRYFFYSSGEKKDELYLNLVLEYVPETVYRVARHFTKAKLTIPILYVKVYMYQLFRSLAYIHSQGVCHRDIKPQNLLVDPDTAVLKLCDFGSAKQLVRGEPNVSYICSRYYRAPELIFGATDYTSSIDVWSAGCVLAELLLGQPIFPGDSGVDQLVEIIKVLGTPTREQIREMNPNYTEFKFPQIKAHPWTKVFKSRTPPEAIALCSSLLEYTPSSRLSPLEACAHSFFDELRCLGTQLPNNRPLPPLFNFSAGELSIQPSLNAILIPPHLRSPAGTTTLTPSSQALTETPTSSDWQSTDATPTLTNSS
Method: as §1

[17] = target: p70S6Kb (Homo sapiens (Human), UniProt Q9UBS0); assay: KINATIV assay; assay type: cell-based; details: 1 μM, 90 minutes, BCWM.1 cells
Sequence of p70S6Kb (Q9UBS0 whole entry): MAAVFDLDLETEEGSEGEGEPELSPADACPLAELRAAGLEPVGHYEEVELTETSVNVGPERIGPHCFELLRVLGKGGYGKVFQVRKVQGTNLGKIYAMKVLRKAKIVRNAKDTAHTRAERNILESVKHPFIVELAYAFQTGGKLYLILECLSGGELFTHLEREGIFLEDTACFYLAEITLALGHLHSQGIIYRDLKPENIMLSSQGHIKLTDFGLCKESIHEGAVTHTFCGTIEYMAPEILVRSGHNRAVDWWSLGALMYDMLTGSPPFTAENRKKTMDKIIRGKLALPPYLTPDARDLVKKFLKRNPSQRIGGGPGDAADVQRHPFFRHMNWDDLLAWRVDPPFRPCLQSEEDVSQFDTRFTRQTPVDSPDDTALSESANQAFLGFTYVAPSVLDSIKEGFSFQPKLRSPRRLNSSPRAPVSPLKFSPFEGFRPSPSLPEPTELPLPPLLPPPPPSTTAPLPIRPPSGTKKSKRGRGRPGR
Method: as §1

[18] = test system: MARK3, MARK4; assay: KINATIV assay; assay type: cell-based; details: 1 μM, 90 minutes, BCWM.1 cells
Method: as §1

[19] = target: MAP3K1 (Homo sapiens (Human), UniProt Q13233); assay: KINATIV assay; assay type: cell-based; details: 1 μM, 90 minutes, BCWM.1 cells
Method: as §1

[20] = target: ILK (Homo sapiens (Human), UniProt Q13418); assay: KINATIV assay; assay type: cell-based; details: 1 μM, 90 minutes, BCWM.1 cells
Sequence of ILK (Q13418 whole entry): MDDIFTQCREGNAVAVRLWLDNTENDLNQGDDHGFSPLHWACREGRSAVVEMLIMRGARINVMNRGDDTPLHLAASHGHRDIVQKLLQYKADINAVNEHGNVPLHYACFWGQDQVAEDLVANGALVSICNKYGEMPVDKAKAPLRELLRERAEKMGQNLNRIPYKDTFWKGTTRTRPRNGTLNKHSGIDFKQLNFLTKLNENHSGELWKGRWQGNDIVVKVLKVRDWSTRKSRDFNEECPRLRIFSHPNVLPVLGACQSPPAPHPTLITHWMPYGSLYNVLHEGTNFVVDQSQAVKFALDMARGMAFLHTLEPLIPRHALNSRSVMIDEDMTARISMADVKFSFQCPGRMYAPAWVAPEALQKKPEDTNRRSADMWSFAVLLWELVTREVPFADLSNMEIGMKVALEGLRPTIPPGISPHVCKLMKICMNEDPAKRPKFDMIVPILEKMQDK
Method: as §1

[21] = target: p70S6K (Homo sapiens (Human), UniProt P23443); assay: KINATIV assay; assay type: cell-based; details: 1 μM, 90 minutes, BCWM.1 cells
Method: as §1

[22] = test system: Wnk1, Wnk2, Wnk3; assay: KINATIV assay; assay type: cell-based; details: 1 μM, 90 minutes, BCWM.1 cells
Method: as §1

[23] = target: VRK2 (Homo sapiens (Human), UniProt Q86Y07); assay: KINATIV assay; assay type: cell-based; details: 1 μM, 90 minutes, BCWM.1 cells
Method: as §1

[24] = target: NEK9 (Homo sapiens (Human), UniProt Q8TD19); assay: KINATIV assay; assay type: cell-based; details: 1 μM, 90 minutes, BCWM.1 cells
Sequence of NEK9 (Q8TD19 whole entry): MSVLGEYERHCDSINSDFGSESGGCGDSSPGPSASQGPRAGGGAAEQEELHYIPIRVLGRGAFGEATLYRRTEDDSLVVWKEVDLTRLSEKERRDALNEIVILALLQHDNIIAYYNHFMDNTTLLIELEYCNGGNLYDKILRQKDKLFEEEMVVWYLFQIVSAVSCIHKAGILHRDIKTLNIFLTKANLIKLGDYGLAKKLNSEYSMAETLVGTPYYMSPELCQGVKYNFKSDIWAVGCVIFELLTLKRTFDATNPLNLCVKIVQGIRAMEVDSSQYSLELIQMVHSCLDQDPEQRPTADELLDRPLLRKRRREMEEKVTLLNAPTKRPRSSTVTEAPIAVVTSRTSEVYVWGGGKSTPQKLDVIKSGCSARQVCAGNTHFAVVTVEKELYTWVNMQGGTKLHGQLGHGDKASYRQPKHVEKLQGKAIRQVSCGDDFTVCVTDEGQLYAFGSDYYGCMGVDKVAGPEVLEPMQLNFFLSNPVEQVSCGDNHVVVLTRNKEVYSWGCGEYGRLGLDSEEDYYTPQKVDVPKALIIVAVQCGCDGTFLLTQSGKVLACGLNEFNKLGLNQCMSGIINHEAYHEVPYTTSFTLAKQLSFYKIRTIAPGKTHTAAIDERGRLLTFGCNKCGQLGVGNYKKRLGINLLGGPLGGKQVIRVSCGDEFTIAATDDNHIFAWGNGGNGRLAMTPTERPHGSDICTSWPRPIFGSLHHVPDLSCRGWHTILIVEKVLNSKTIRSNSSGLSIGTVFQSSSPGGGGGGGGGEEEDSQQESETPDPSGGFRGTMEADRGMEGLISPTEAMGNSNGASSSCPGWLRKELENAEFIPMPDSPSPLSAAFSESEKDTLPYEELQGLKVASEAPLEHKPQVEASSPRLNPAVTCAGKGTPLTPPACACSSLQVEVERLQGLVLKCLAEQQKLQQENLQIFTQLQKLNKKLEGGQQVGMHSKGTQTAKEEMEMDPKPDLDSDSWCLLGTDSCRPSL
Method: as §1

[25] = target: RSK4 domain1 (Homo sapiens (Human), UniProt Q9UK32); assay: KINATIV assay; assay type: cell-based; details: 1 μM, 90 minutes, BCWM.1 cells
Method: as §1

[26] = target: MLK3 (Homo sapiens (Human), UniProt Q16584); assay: KINATIV assay; assay type: cell-based; details: 1 μM, 90 minutes, BCWM.1 cells
Method: as §1

[27] = target: MLKL (Homo sapiens (Human), UniProt Q8NB16); assay: KINATIV assay; assay type: cell-based; details: 1 μM, 90 minutes, BCWM.1 cells
Method: as §1

[28] = target: IRE1 (Homo sapiens (Human), UniProt O75460); assay: KINATIV assay; assay type: cell-based; details: 1 μM, 90 minutes, BCWM.1 cells
Method: as §1

[29] = target: NEK3 (Homo sapiens (Human), UniProt P51956); assay: KINATIV assay; assay type: cell-based; details: 1 μM, 90 minutes, BCWM.1 cells
Method: as §1

[30] = test system: MAP3K15, MAP3K5, MAP3K6; assay: KINATIV assay; assay type: cell-based; details: 1 μM, 90 minutes, BCWM.1 cells
Method: as §1

[31] = target: ROCK1 (Homo sapiens (Human), UniProt Q13464); assay: KINATIV assay; assay type: cell-based; details: 1 μM, 90 minutes, BCWM.1 cells
Method: as §1

[32] = target: CDK9 (Homo sapiens (Human), UniProt P50750); assay: KINATIV assay; assay type: cell-based; details: 1 μM, 90 minutes, BCWM.1 cells
Method: as §1

[33] = target: PIK3CB (Homo sapiens (Human), UniProt P42338); assay: KINATIV assay; assay type: cell-based; details: 1 μM, 90 minutes, BCWM.1 cells
Method: as §1

[34] = test system: PCTAIRE1, PCTAIRE3; assay: KINATIV assay; assay type: cell-based; details: 1 μM, 90 minutes, BCWM.1 cells
From the text: (§2) The cells were harvested and lysed.

[35] = test system: PCTAIRE2, PCTAIRE3; assay: KINATIV assay; assay type: cell-based; details: 1 μM, 90 minutes, BCWM.1 cells
From the text: as §2

[36] = target: MAPKAPK3 (Homo sapiens (Human), UniProt Q16644)
Method: as §1

[37] = target: PCTAIRE1 (Homo sapiens (Human), UniProt Q00536)
Method: as §1

[38] = target: PRPK (Homo sapiens (Human), UniProt Q96S44)
Method: as §1

[39] = target: PRP4 (Homo sapiens (Human), UniProt Q13523)
Method: as §1

[40] = target: PCTAIRE2 (Homo sapiens (Human), UniProt Q00537)
Method: as §1

Sequence of ACK (Q07912 whole entry): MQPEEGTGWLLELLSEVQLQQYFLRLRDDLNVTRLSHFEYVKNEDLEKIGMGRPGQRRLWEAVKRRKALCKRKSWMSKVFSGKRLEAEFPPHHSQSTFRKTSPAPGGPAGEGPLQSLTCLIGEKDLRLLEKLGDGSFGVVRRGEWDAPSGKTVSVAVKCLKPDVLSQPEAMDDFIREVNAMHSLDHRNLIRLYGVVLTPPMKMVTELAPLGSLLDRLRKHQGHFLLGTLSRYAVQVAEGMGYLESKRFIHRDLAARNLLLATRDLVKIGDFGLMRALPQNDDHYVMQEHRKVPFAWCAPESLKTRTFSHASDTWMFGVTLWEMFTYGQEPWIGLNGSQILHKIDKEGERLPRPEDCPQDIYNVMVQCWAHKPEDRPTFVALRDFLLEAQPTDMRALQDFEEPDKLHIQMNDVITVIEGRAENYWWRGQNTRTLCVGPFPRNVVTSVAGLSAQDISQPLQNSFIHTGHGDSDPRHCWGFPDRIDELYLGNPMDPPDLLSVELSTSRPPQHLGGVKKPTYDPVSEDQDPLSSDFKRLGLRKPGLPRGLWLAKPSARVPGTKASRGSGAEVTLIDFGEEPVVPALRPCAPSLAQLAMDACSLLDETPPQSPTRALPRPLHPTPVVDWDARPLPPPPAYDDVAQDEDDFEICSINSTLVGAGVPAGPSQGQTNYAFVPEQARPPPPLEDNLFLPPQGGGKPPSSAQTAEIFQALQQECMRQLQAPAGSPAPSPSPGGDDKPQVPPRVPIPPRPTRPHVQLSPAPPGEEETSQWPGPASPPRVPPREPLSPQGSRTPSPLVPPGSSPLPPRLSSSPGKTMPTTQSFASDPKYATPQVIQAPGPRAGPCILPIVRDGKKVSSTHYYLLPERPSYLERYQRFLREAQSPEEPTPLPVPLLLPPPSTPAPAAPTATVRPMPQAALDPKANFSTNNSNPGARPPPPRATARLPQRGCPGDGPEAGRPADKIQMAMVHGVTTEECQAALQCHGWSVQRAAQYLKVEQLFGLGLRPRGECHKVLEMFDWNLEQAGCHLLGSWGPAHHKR

SMILES: C=CC(=O)N1CCC(CNc2nccc(Nc3ncc(C(=O)Nc4c(C)cccc4C)s3)n2)C1 (racemic) [Example I-8]
- % change of MS signal compared to control sample [1]: 69.9% and 82.4%
- % change of MS signal compared to control sample [2]: −15.3%
- % change of MS signal compared to control sample [3]: 1.0%
- % change of MS signal compared to control sample [4]: 19.6%
- % change of MS signal compared to control sample [5]: −26.3%
- % change of MS signal compared to control sample [6]: −9.5%
- % change of MS signal compared to control sample [7]: −14.9%
- % change of MS signal compared to control sample [8]: −9.4%
- % change of MS signal compared to control sample [9]: −1.5%
- % change of MS signal compared to control sample [10]: 7.5%
- % change of MS signal compared to control sample [11]: −19.6%
- % change of MS signal compared to control sample [12]: −8.7%
- % change of MS signal compared to control sample [13]: 97.6% and 85.7%
- % change of MS signal compared to control sample [14]: −8.8%
- % change of MS signal compared to control sample [15]: 3.3%
- % change of MS signal compared to control sample [16]: −14.2%
- % change of MS signal compared to control sample [17]: −22.7%
- % change of MS signal compared to control sample [18]: 5.8%
- % change of MS signal compared to control sample [19]: 15.5%
- % change of MS signal compared to control sample [20]: 19.4% and 36.6%
- % change of MS signal compared to control sample [21]: −36.8%
- % change of MS signal compared to control sample [22]: 1.7%
- % change of MS signal compared to control sample [23]: 3.6%
- % change of MS signal compared to control sample [24]: −1.3% and −0.3%
- % change of MS signal compared to control sample [25]: −8.2%
- % change of MS signal compared to control sample [26]: 11.7%
- % change of MS signal compared to control sample [27]: −17.5%
- % change of MS signal compared to control sample [28]: −1.5%
- % change of MS signal compared to control sample [29]: 3.2%
- % change of MS signal compared to control sample [30]: 2.2%
- % change of MS signal compared to control sample [31]: 4.4%
- % change of MS signal compared to control sample [32]: −5.2%
- % change of MS signal compared to control sample [33]: −10.1%
- % change of MS signal compared to control sample [34]: 19.8%
- % change of MS signal compared to control sample [35]: 28.8%
- % change of MS signal compared to control sample [36]: 0.5%
- % change of MS signal compared to control sample [37]: 32.9%
- % change of MS signal compared to control sample [38]: 3.7%
- % change of MS signal compared to control sample [39]: −10.7%
- % change of MS signal compared to control sample [40]: 8.5%

Source: patent publication US10844077B2, “Thiazolyl-containing compounds for treating proliferative diseases” (Dana-Farber Cancer Institute, Inc., priority 2014, dated 2020)
